Reference: ChEMBL document CHEMBL1137136, “Change in liver and plasma ceramides during D-galactosamine-induced acute hepatic injury by LC-MS/MS” (2004)
Several values for one entry are separate records, joined by “and”; a condition that tells them apart may be missing. Equal values may be shown once.

How the values were obtained:
Assay type in all cases: functional
Rattus norvegicus [1] = test: Concentration of C22:1 ceramide in plasma of D-galactosamine treated rats after 18 hr at dose of 1 g/kg intraperitoneally
Rattus norvegicus [2] = test: Concentration of C16:0 ceramide in liver of D-galactosamine treated rats after 18 hr at dose of 1 g/kg intraperitoneally
Rattus norvegicus [3] = test: Concentration of C18:0 ceramide in plasma of D-galactosamine treated rats after 18 h at dose of 1 g/kg intraperitoneally
Rattus norvegicus [4] = test: Concentration of C18:0 ceramide in liver of D-galactosamine treated rats after 24 hr at dose of 1 g/kg intraperitoneally
Rattus norvegicus [5] = test: Concentration of C24:2 ceramide in liver of D-galactosamine treated rats after 18 hr at dose of 1 g/kg intraperitoneally
Rattus norvegicus [6] = test: Concentration of C24:0 ceramide in liver of D-galactosamine treated rats after 24 hr at dose of 1 g/kg intraperitoneally
Rattus norvegicus [7] = test: Concentration of C20:0 ceramide in liver of D-galactosamine treated rats after 24 hr at dose of 1 g/kg intraperitoneally
Rattus norvegicus [8] = test: Concentration of C22:0 ceramide in liver of D-galactosamine treated rats after 18 hr at dose of 1 g/kg intraperitoneally
Rattus norvegicus [9] = test: Plasma GOT level was observed after 24 hr of D-galactosamine administration at 1 g/kg intraperitoneally
Rattus norvegicus [10] = test: Concentration of C24:2 ceramide in plasma of D-galactosamine treated rats after 18 hr at dose of 1 g/kg intraperitoneally
Rattus norvegicus [11] = test: Concentration of C22:0 ceramide in liver of D-galactosamine treated rats after 24 hr at dose of 1 g/kg intraperitoneally
Rattus norvegicus [12] = test: Concentration of C20:0 ceramide in plasma of D-galactosamine treated rats after 24 hr at dose of 1 g/kg intraperitoneally
Rattus norvegicus [13] = test: Plasma GPT level was observed after 24 hr of D-galactosamine administration at 1 g/kg intraperitoneally
Rattus norvegicus [14] = test: Concentration of C22:1 ceramide in liver of D-galactosamine treated rats after 18 hr at dose of 1 g/kg intraperitoneally
Rattus norvegicus [15] = test: Concentration of C24:0 ceramide in plasma of D-galactosamine treated rats after 18 hr at dose of 1 g/kg intraperitoneally
Rattus norvegicus [16] = test: Concentration of C24:2 ceramide in liver of D-galactosamine treated rats after 24 hr at dose of 1 g/kg intraperitoneally
Rattus norvegicus [17] = test: Concentration of C22:1 ceramide in liver of D-galactosamine treated rats after 24 hr at dose of 1 g/kg intraperitoneally
Rattus norvegicus [18] = test: Concentration of C22:2 ceramide in plasma of D-galactosamine treated rats after 24 hr at dose of 1 g/kg intraperitoneally
Rattus norvegicus [19] = test: Concentration of C16:0 ceramide in liver of D-galactosamine treated rats after 24 hr at dose of 1 g/kg intraperitoneally
Rattus norvegicus [20] = test: Concentration of C16:0 ceramide in plasma of D-galactosamine treated rats after 24 hr at dose of 1 g/kg intraperitoneally
Rattus norvegicus [21] = test: Concentration of C22:2 ceramide in liver of D-galactosamine treated rats after 24 hr at dose of 1 g/kg intraperitoneally
Rattus norvegicus [22] = test: Concentration of C20:0 ceramide in plasma of D-galactosamine treated rats after 18 hr at dose of 1 g/kg intraperitoneally
Rattus norvegicus [23] = test: Concentration of C24:1 ceramide in plasma of D-galactosamine treated rats after 24 hr at dose of 1 g/kg intraperitoneally
Rattus norvegicus [24] = test: Concentration of C22:2 ceramide in liver of D-galactosamine treated rats after 18 hr at dose of 1 g/kg intraperitoneally
Rattus norvegicus [25] = test: Concentration of C24:1 ceramide in plasma of D-galactosamine treated rats after 18 hr at dose of 1 g/kg intraperitoneally
Rattus norvegicus [26] = test: Concentration of C18:0 ceramide in liver of D-galactosamine treated rats after 18 hr at dose of 1 g/kg intraperitoneally
Rattus norvegicus [27] = test: Plasma GPT level was observed after 18 hr of D-galactosamine administration at 1 g/kg intraperitoneally
Rattus norvegicus [28] = test: Concentration of C16:0 ceramide in plasma of D-galactosamine treated rats after 18 h at dose of 1 g/kg intraperitoneally
Rattus norvegicus [29] = test: Concentration of C18:0 ceramide in plasma of D-galactosamine treated rats after 24 hr at dose of 1 g/kg intraperitoneally
Rattus norvegicus [30] = test: Plasma GOT level was observed after 18 hr of D-galactosamine administration at 1 g/kg intraperitoneally
Rattus norvegicus [31] = test: Concentration of C24:1 ceramide in liver of D-galactosamine treated rats after 18 hr at dose of 1 g/kg intraperitoneally
Rattus norvegicus [32] = test: Concentration of C24:1 ceramide in liver of D-galactosamine treated rats after 24 hr at dose of 1 g/kg intraperitoneally
Rattus norvegicus [33] = test: Concentration of C20:0 ceramide in liver of D-galactosamine treated rats after 18 h at dose of 1 g/kg intraperitoneally
Rattus norvegicus [34] = test: Concentration of C22:2 ceramide in plasma of D-galactosamine treated rats after 18 hr at dose of 1 g/kg intraperitoneally
Rattus norvegicus [35] = test: Concentration of C24:0 ceramide in plasma of D-galactosamine treated rats after 24 hr at dose of 1 g/kg intraperitoneally
Rattus norvegicus [36] = test: Concentration of C24:0 ceramide in liver of D-galactosamine treated rats after 18 hr at dose of 1 g/kg intraperitoneally

N[C@H]1C(O)O[C@H](CO)[C@@H](O)[C@@H]1O (stereo partly specified) [GLUCOSAMINE]
Activity (Rattus norvegicus [1]): 5.45 nmol/g tissue | Activity (Rattus norvegicus [2]): 43.9 nmol/g tissue | Activity (Rattus norvegicus [3]): 0.18 nmol/g tissue | Activity (Rattus norvegicus [4]): 11.5 nmol/g tissue | Activity (Rattus norvegicus [5]): 12.4 nmol/g tissue | Activity (Rattus norvegicus [6]): 166.3 nmol/g tissue | Activity (Rattus norvegicus [7]): 5.6 nmol/g tissue | Activity (Rattus norvegicus [8]): 37.8 nmol/g tissue | Activity (Rattus norvegicus [9]): 18480 Karmen | Activity (Rattus norvegicus [10]): 0.98 nmol/g tissue and 1.94 nmol/g tissue | Activity (Rattus norvegicus [11]): 35.6 nmol/g tissue | Activity (Rattus norvegicus [12]): 0.65 nmol/g tissue | Activity (Rattus norvegicus [13]): 7280 Karmen | Activity (Rattus norvegicus [14]): 4.6 nmol/g tissue | Activity (Rattus norvegicus [15]): 6.31 nmol/g tissue | Activity (Rattus norvegicus [16]): 12.4 nmol/g tissue | Activity (Rattus norvegicus [17]): 7.1 nmol/g tissue | Activity (Rattus norvegicus [18]): 2.33 nmol/g tissue | Activity (Rattus norvegicus [19]): 36.2 nmol/g tissue | Activity (Rattus norvegicus [20]): 3.13 nmol/g tissue | Activity (Rattus norvegicus [21]): 7 nmol/g tissue | Activity (Rattus norvegicus [22]): 0.42 nmol/g tissue | Activity (Rattus norvegicus [23]): 13.83 nmol/g tissue | Activity (Rattus norvegicus [24]): 4.8 nmol/g tissue | Activity (Rattus norvegicus [25]): 5.78 nmol/g tissue | Activity (Rattus norvegicus [26]): 11.1 nmol/g tissue | Activity (Rattus norvegicus [27]): 1208 Karmen | Activity (Rattus norvegicus [28]): 1.06 nmol/g tissue | Activity (Rattus norvegicus [29]): 0.9 nmol/g tissue | Activity (Rattus norvegicus [30]): 2516 Karmen | Activity (Rattus norvegicus [31]): 59.6 nmol/g tissue | Activity (Rattus norvegicus [32]): 67.2 nmol/g tissue | Activity (Rattus norvegicus [33]): 3.9 nmol/g tissue | Activity (Rattus norvegicus [34]): 2.57 nmol/g tissue | Activity (Rattus norvegicus [35]): 26.31 nmol/g tissue | Activity (Rattus norvegicus [36]): 173.7 nmol/g tissue
